# Data taken from US7371207B2 (Wyeth, priority 2002, dated 2008).
# Test system: gene expression in the kidney
# Test: GeneChip microarray survey of E2 regulated gene expression, kidney
# Conditions: for E2: Study 2 ERbKO; for Study 1 E2 Expr (/evansm/Kidney, mouse/Study 1, U74v2/KO E2 kidney (81038)) / E2 Expr (/evansm/Kidney, mouse/Study 2, U74v2/ER bKO kidney E2 (82412)): ERbKO
# Method: FIG. 1 depicts a pattern analysis generated by a GeneChip microarray analysis. […] Two hours following the final dose, the mice were euthanized and 13 tissues removed for RNA preparation. Two independent studies were performed, with total RNA pooled from two groups of three animals for each condition. Gene expression was quantified by GeneChip microarrays using murine U74 sub A arrays. Data were analyzed for patterns indicating either ERα or ERβ dependent regulation as shown. […] The number of genes in each tissue that matched the theoretical induction (↑) or repression (↓) patterns for ERα or ERβ are indicated.
# FIGS. 2A-2C show a series of bar graphs showing gene expression levels of known genes regulated in the kidney in an ERα pattern. […] Expression was measured in two independent sets of animals, with two groups of animals for each treatment in each study. A gene name abbreviation is shown above each graph, with the corresponding Unigene designation shown below.
# One week later, the animals were ovariectomized.
# GeneChip—Total RNA was prepared separately from each individual organ by using Trizol (Invitrogen) followed by subsequent repurification on Rneasy columns (Qiagen). In general, two pools of RNA were created using equal amounts of RNA from three mice. For small organs such as pituitary, an equal amount of RNA from six animals was combined.
# Target Preparation and Array Hybridization—Total RNA was used to generate biotin labeled cRNA target as described (8) which was hybridized to the murine MG_U74Av2 probe arrays (Affymetrix, Santa Clara, Calif.) for 16 h at 45° C. Eleven biotin-labeled cRNAs at defined concentration were spiked into each hybridization and used to convert average difference values to frequencies expressed as parts per million.
# The resulting data set was queried for genes whose regulation was dependent on ERα or ERβ.
# [1] = 1st line of INDUCTIONS (by order 100060_l_at, kallikrein 8)
# [2] = 2nd line of INDUCTIONS (by order 100061_f_at, kallikrein 8)
# [3] = 3rd line of INDUCTIONS (by order 95775_f_at, kallikrein 1)
# [4] = 4th line of INDUCTIONS (by order 104495_f_at, kallikrein 5)
# [5] = 5th line of INDUCTIONS (by order 94716_f_at, kallikrein 9)
# [6] = 6th line of INDUCTIONS (by order 100422_f_at, signal transducer and activator of transcription 5A)
# [7] = 7th line of INDUCTIONS (by order 100423_f_at, signal transducer and activator of transcription 5A)
# [8] = 8th line of INDUCTIONS (by order 101289_f_at, M17979)
smiles,measurement,setting,value
"C[C@]12CC[C@@H]3c4ccc(O)cc4CC[C@H]3[C@@H]1CC[C@@H]2O [E2, 17β-estradiol]",E2,[1],37
same,"Study 1 E2 Expr (/evansm/Kidney, mouse/Study 1, U74v2/KO E2 kidney (81038))",[1],37
same,"E2 Expr (/evansm/Kidney, mouse/Study 2, U74v2/ER bKO kidney E2 (82412))",[1],44
same,"E2 Expr (/evansm/Kidney, mouse/Study 2, U74v2/WT kidney E2 (82408))",[1],40
same,"E2 Expr (/evansm/Kidney, mouse/Study 2, U74v2/WT kidney E2 (82409))",[1],31
same,E2,[2],297
same,"Study 1 E2 Expr (/evansm/Kidney, mouse/Study 1, U74v2/KO E2 kidney (81038))",[2],370
same,"E2 Expr (/evansm/Kidney, mouse/Study 2, U74v2/ER bKO kidney E2 (82412))",[2],359
same,"E2 Expr (/evansm/Kidney, mouse/Study 2, U74v2/WT kidney E2 (82408))",[2],338
same,"E2 Expr (/evansm/Kidney, mouse/Study 2, U74v2/WT kidney E2 (82409))",[2],201
same,E2,[3],291
same,"Study 1 E2 Expr (/evansm/Kidney, mouse/Study 1, U74v2/KO E2 kidney (81038))",[3],333
same,"E2 Expr (/evansm/Kidney, mouse/Study 2, U74v2/ER bKO kidney E2 (82412))",[3],361
same,"E2 Expr (/evansm/Kidney, mouse/Study 2, U74v2/WT kidney E2 (82408))",[3],345
same,"E2 Expr (/evansm/Kidney, mouse/Study 2, U74v2/WT kidney E2 (82409))",[3],234
same,E2,[4],130
same,"Study 1 E2 Expr (/evansm/Kidney, mouse/Study 1, U74v2/KO E2 kidney (81038))",[4],125
same,"E2 Expr (/evansm/Kidney, mouse/Study 2, U74v2/ER bKO kidney E2 (82412))",[4],163
same,"E2 Expr (/evansm/Kidney, mouse/Study 2, U74v2/WT kidney E2 (82408))",[4],145
same,"E2 Expr (/evansm/Kidney, mouse/Study 2, U74v2/WT kidney E2 (82409))",[4],89
same,E2,[5],302
same,"Study 1 E2 Expr (/evansm/Kidney, mouse/Study 1, U74v2/KO E2 kidney (81038))",[5],372
same,"E2 Expr (/evansm/Kidney, mouse/Study 2, U74v2/ER bKO kidney E2 (82412))",[5],369
same,"E2 Expr (/evansm/Kidney, mouse/Study 2, U74v2/WT kidney E2 (82408))",[5],329
same,"E2 Expr (/evansm/Kidney, mouse/Study 2, U74v2/WT kidney E2 (82409))",[5],230
same,E2,[6],92
same,"Study 1 E2 Expr (/evansm/Kidney, mouse/Study 1, U74v2/KO E2 kidney (81038))",[6],70
same,"E2 Expr (/evansm/Kidney, mouse/Study 2, U74v2/ER bKO kidney E2 (82412))",[6],104
same,"E2 Expr (/evansm/Kidney, mouse/Study 2, U74v2/WT kidney E2 (82408))",[6],104
same,"E2 Expr (/evansm/Kidney, mouse/Study 2, U74v2/WT kidney E2 (82409))",[6],73
same,E2,[7],72
same,"Study 1 E2 Expr (/evansm/Kidney, mouse/Study 1, U74v2/KO E2 kidney (81038))",[7],61
same,"E2 Expr (/evansm/Kidney, mouse/Study 2, U74v2/ER bKO kidney E2 (82412))",[7],58
same,"E2 Expr (/evansm/Kidney, mouse/Study 2, U74v2/WT kidney E2 (82408))",[7],80
same,"E2 Expr (/evansm/Kidney, mouse/Study 2, U74v2/WT kidney E2 (82409))",[7],44
same,E2,[8],236
same,"Study 1 E2 Expr (/evansm/Kidney, mouse/Study 1, U74v2/KO E2 kidney (81038))",[8],282
same,"E2 Expr (/evansm/Kidney, mouse/Study 2, U74v2/ER bKO kidney E2 (82412))",[8],295
same,"E2 Expr (/evansm/Kidney, mouse/Study 2, U74v2/WT kidney E2 (82408))",[8],264
same,"E2 Expr (/evansm/Kidney, mouse/Study 2, U74v2/WT kidney E2 (82409))",[8],178
same,"E2 Expr (/evansm/Kidney, mouse/Study 1, U74v2/WT E2 kidney (81036))","92232_at, U88328, cytokine inducible SH-2 containing protein 3",45
same,"E2 Expr (/evansm/Kidney, mouse/Study 1, U74v2/WT E2 kidney (81036))","93104_at, Z16410, B-cell translocation gene 1, anti-proliferative",14
same,"E2 Expr (/evansm/Kidney, mouse/Study 1, U74v2/WT E2 kidney (81036))","93374_at, AI836349, junctophilin 3",65
same,"E2 Expr (/evansm/Kidney, mouse/Study 1, U74v2/WT E2 kidney (81036))","94694_at, M69196, proprotein convertase subtillsin/kexin type 1",27
same,"E2 Expr (/evansm/Kidney, mouse/Study 1, U74v2/WT E2 kidney (81036))","94716_f_at, M17962, kallikrein 9",380
same,"E2 Expr (/evansm/Kidney, mouse/Study 1, U74v2/WT E2 kidney (81036))","94773_at, X01801, nerve growth factor, alpha",53
same,"E2 Expr (/evansm/Kidney, mouse/Study 1, U74v2/WT E2 kidney (81036))","95559_at, AI838836, RIKEN cDNA 6330403K07 gene",74
same,"E2 Expr (/evansm/Kidney, mouse/Study 1, U74v2/WT E2 kidney (81036))","95775_f_at, V00829, kallikrein 1",370
same,"E2 Expr (/evansm/Kidney, mouse/Study 1, U74v2/WT E2 kidney (81036))","95905_at, AI118078, Mm.24361",83
same,"E2 Expr (/evansm/Kidney, mouse/Study 1, U74v2/WT E2 kidney (81036))","96215_f_at, AI53421, Mm.218360",206
same,"E2 Expr (/evansm/Kidney, mouse/Study 1, U74v2/WT E2 kidney (81036))","96591_at, U24703, reelin",43
same,"E2 Expr (/evansm/Kidney, mouse/Study 1, U74v2/WT E2 kidney (81036))","96629_at, X04097, similar to TESTOSTERONE-REGULATED RP2 PROTEIN",55
same,"E2 Expr (/evansm/Kidney, mouse/Study 1, U74v2/WT E2 kidney (81036))","97353_at, AI837497, AF9Q34 NGAP-like protein",29
same,"E2 Expr (/evansm/Kidney, mouse/Study 1, U74v2/WT E2 kidney (81036))","97519_at, X13986, secreted phosphoprotein 1",178
same,"E2 Expr (/evansm/Kidney, mouse/Study 1, U74v2/WT E2 kidney (81036))","97520_s_at, X83569, neuroatin",157
same,"E2 Expr (/evansm/Kidney, mouse/Study 1, U74v2/WT E2 kidney (81036))","98055_at, AW121500, bladder cancer associated protein homolog (human)",14
same,"E2 Expr (/evansm/Kidney, mouse/Study 1, U74v2/WT E2 kidney (81036))","98437_at, U83720, caspase 3, apoptosis related cysteine protease",39
same,"E2 Expr (/evansm/Kidney, mouse/Study 1, U74v2/WT E2 kidney (81036))","98628_f_at, AF003695, hypoxia inducible factor 1, alpha subunit",288
same,"E2 Expr (/evansm/Kidney, mouse/Study 1, U74v2/WT E2 kidney (81036))","99057_at, M12379, thymus cell antigen 1, theta",57
same,"E2 Expr (/evansm/Kidney, mouse/Study 1, U74v2/WT E2 kidney (81036))","99127_at, X61506, spinocerebellar ataxia 10 homolog (human)",66
same,"E2 Expr (/evansm/Kidney, mouse/Study 1, U74v2/WT E2 kidney (81036))","99552_at, U79550, slug, chicken homolog",19
same,"E2 Expr (/evansm/Kidney, mouse/Study 1, U74v2/WT E2 kidney (81036))","99632_at, U83902, MAD2 (mitotic arrest deficient, homolog)-like 1 (yeast)",27
same,"E2 Expr (/evansm/Kidney, mouse/Study 1, U74v2/WT E2 kidney (81036))","100060_l_at, M13500, kallikrein 8",39
same,"E2 Expr (/evansm/Kidney, mouse/Study 1, U74v2/WT E2 kidney (81036))","100061_f_at, M13500, kallikrein 8",341
same,"E2 Expr (/evansm/Kidney, mouse/Study 1, U74v2/WT E2 kidney (81036))","100407_at, L38580, galanin",98
same,"E2 Expr (/evansm/Kidney, mouse/Study 1, U74v2/WT E2 kidney (81036))","100422_f_at, AJ237939, signal transducer and activator of transcription 5A",151
same,"E2 Expr (/evansm/Kidney, mouse/Study 1, U74v2/WT E2 kidney (81036))","100423_f_at, AJ237939, signal transducer and activator of transcription 5A",96
same,"E2 Expr (/evansm/Kidney, mouse/Study 1, U74v2/WT E2 kidney (81036))","100440_f_at, U76758, ankyrin 1, erythroid",119
same,"E2 Expr (/evansm/Kidney, mouse/Study 1, U74v2/WT E2 kidney (81036))","100539_at, AI841279, ?HBACH Cytosolic acyl coenzyme A thioester hydrolase",16
same,"E2 Expr (/evansm/Kidney, mouse/Study 1, U74v2/WT E2 kidney (81036))","100681_f_at, V00829",123
same,"E2 Expr (/evansm/Kidney, mouse/Study 1, U74v2/WT E2 kidney (81036))","100719_f_at, J03677, kallikrein 16",119
same,"E2 Expr (/evansm/Kidney, mouse/Study 1, U74v2/WT E2 kidney (81036))","101289_f_at, M17979",305
same,"E2 Expr (/evansm/Kidney, mouse/Study 1, U74v2/WT E2 kidney (81036))","101737_at, U12932, follicle stimulating hormone beta",19
same,"E2 Expr (/evansm/Kidney, mouse/Study 1, U74v2/WT E2 kidney (81036))","101738_at, U25145, tutetnizing hormone beta",578
same,"E2 Expr (/evansm/Kidney, mouse/Study 1, U74v2/WT E2 kidney (81036))","101870_at, V00793",21
